The values below come from patent US20100120839A1, “PYRAZOLES USEFUL IN THE TREATMENT OF INFLAMMATION” (Biolipox AB, priority 2007, published 2010).

The assay concerns the target T1, purified human 15-lipoxygenase (Homo sapiens, UniProt P16050).
T1 sequence (P16050 1-662): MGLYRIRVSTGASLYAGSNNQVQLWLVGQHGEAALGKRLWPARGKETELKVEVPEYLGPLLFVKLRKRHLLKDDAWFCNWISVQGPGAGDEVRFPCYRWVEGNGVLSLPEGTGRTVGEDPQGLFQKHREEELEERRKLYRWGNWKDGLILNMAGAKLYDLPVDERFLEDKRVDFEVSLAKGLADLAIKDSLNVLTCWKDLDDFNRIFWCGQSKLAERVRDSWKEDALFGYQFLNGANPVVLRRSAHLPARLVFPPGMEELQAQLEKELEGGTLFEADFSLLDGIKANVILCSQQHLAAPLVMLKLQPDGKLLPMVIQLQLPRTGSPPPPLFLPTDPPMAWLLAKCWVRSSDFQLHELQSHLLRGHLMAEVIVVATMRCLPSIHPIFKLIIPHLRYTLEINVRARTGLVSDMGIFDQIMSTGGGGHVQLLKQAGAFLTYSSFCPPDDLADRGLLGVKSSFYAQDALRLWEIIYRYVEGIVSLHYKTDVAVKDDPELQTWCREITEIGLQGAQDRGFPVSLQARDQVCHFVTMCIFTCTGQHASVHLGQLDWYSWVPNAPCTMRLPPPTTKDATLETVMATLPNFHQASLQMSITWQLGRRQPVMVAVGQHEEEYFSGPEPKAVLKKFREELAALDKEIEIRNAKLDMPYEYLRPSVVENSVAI
Nature of the assay: 15-lipoxygenase inhibition assay (arachidonic acid oxidation, reverse phase HPLC readout). In kind it is biochemical. On the procedure:
The assay employed takes advantage of the ability of lipoxygenases to oxidize polyunsaturated fatty acids, containing a 1,4-cis-pentadiene configuration, to their corresponding hydroperoxy or hydroxyl derivatives. In this particular assay, the lipoxygenase was a purified human 15-lipoxygenase and the fatty acid was arachidonic acid. The assay is performed at room temperature (20-22° C.) and the following are added to each well in a 96-well microtiter plate:
a) 35 μL phosphate buffered saline (PBS) (pH 7.4); b) inhibitor (i.e. compound) or vehicle (0.5 μl DMSO); c) 10 μL of a 10× concentrated solution of 15-lipoxygenase in PBS. […] The plate is then incubated for 10 minutes at room temperature; e) the enzymatic reaction is terminated by the addition of 100 μl methanol; and f) the amount of 15-hydroperoxy-eicosatetraenoic acid or 15-hydroxy-eicosatetraenoic acid is measured by reverse phase HPLC.

The mark [1] stands for this setting: arachidonic acid substrate, room temperature (20-22° C.), PBS pH 7.4, read-out: IC50.

pIC50: −log10 of the molar value. Read-outs that look alike come from different tables or passages of the source.

Turning to `c1ccc2oc(-c3cc[nH]n3)nc2c1` [Example 1, 2-(Pyrazol-3-yl)-benzoxazole], the pIC50 (in general, −log10 of the IC50, conventionally taken in molar units) was 6.65.
For `Clc1cc(-c2nc3ccccc3o2)n[nH]1` [Example 11, 2-(5-Chloropyrazol-3-yl)benzoxazole], the pIC50 under setting [1] was 7.48.
Consider `Fc1cccc2nc(-c3cc(Cl)[nH]n3)oc12` [Example 15, 2-(5-Chloropyrazol-3-yl)-7-fluorobenzoxazole], for which, under setting [1], the negative-log IC50 (pIC50) was 7.39.
Same read-out and setting: with `Fc1cccc2oc(-c3cc(Cl)[nH]n3)nc12` [Example 17, 2-(5-Chloropyrazol-3-yl)-4-fluorobenzoxazole] the figure was 7.31.
Same read-out and setting: with `Fc1cccc2oc(-c3n[nH]c(Cl)c3Cl)nc12` [Example 18, 2-(4,5-Dichloropyrazol-3-yl)-4-fluorobenzoxazole] the figure was 7.46.
Take `Clc1[nH]nc(-c2nc3cccnc3o2)c1Cl` [Example 32, 2-(4,5-Dichloropyrazol-3-yl)oxazolo[5,4-b]pyridine]: under setting [1], the pIC50 is 6.90.
For the compound `FC(F)(F)c1cnc2oc(-c3n[nH]c(Cl)c3Cl)nc2c1` [Example 33, 2-(4,5-Dichloropyrazol-3-yl)-6-(trifluoromethyl)-oxazolo[5,4-b]pyridine], under setting [1], the pIC50 was 7.07.
